Data as given in patent publication US10765643B2, “Use of cannabidiol in the treatment of epilepsy” (GW Pharma Limited, priority 2014, dated 2020).

Legend:
Lennox-Gastaut syndrome = conditions: one child with Lennox-Gastaut syndrome, CBD in an oily solution; cited from earlier work
generalized epilepsy = conditions: eight adult patients with generalized epilepsy; cited from earlier work
[1] = system: seizures associated with Aicardi Syndrome; experiment: Expanded access compassionate use program: CBD added to baseline AED regimen, seizure frequency from seizure diaries; assay type: in vivo, human
Experimental: Of 137 children and young adults with severe, childhood onset treatment-resistant epilepsy (TRE), 14 suffered from Aicardi syndrome. These subjects were tested with a highly purified extract of cannabidiol (CBD) obtained from a cannabis plant. The participants in the study were part of an expanded access compassionate use program for CBD.
All of these patients diagnosed with Aicardi Syndrome presented with multiple seizure types which included
focal seizures with impairment; infantile spasm; clonic seizures; tonic seizures; tonic-clonic seizures; atonic seizures; myoclonic seizures; absence seizures; and focal seizures evolving to secondary generalised seizures.
All patients entered a baseline period of 4 weeks when parents/caregivers kept prospective seizure diaries, noting all countable motor seizure types.
The patients then received a highly purified CBD extract (greater than 98% CBD w/w) in sesame oil, of known and constant composition, at a dose of 5 mg/kg/day in addition to their baseline anti-epileptic drug (AED) regimen.
Laboratory testing for hematologic, liver, kidney function, and concomitant AED levels was performed at baseline, and after CBD therapy.
All patients were taking at least two concomitant anti-epileptic drugs. These included clobazam; levetiracetam; topiramate; stiripentol; phenobarbital; lacsamide; valproic acid; zonisamide. The average number of concomitant antiepileptic drugs being taken was 2.7.
There were 14 children and young adult patients who received at least 3 months of treatment all of whom suffered from treatment-resistant epilepsy which is characterised by Aicardi Syndrome.
The change from baseline in the number of different seizures and total number of seizures after 12 weeks treatment are summarized in Table 7 below.

seizures [2] = conditions: 200 mg/day pure CBD, four adult patients; seizure frequency unchanged in the remainder; cited from earlier work
[3] = system: seizures after pro-convulsant drugs or an electric current; conditions: mice; cited from earlier work
[4] = Solubility of drug substance in water; assay type: physicochemical
Text: The drug substance, CBD is insoluble in water. Sesame oil was selected as an excipient to solubilize the drug substance.

seizures [5] = conditions: 200 mg/day pure CBD, twelve institutionalized adult patients, open label; cited from earlier work
seizures [6] = conditions: Consroe et al., 1977; cited from earlier work
[7] = 14 Aicardi Syndrome patients, after 12 weeks treatment, CBD 5 up to 25 mg/kg/day plus concomitant AED
[8] = Aicardi Syndrome patients, after 3 months of therapy

SMILES: C=C(C)[C@@H]1CCC(C)=C[C@H]1c1c(O)cc(CCCCC)cc1O [CBD, Cannabidiol]
- seizure frequency (Lennox-Gastaut syndrome): improvement
- patients with marked reduction of seizures (generalized epilepsy): 4
- Average change in baseline (%) Convulsive seizures [1, 7]: −77%
- Average change in baseline (%) Focal seizures with impairment [1, 7]: −62%
- Average change in baseline (%) Infantile spasm [1, 7]: −55.5%
- Average change in baseline (%) Total seizures [1, 7]: −69%
- reduction in convulsive seizures [1, 8]: 77%
- reduction in focal seizures with impairment [1, 8]: 62%
- reduction of infantile spasms [1, 8]: 55.5%
- reduction in total seizures ([1]; Aicardi Syndrome patients, after 3 months of therapy, average decrease): 69%
- focal onset seizures evolving to secondary generalisation ([1]; one patient, week 12, 47 seizures at baseline, earlier stage of program): 17 per month
- tonic-clonic seizures ([1]; other patient, week 12, 7 seizures at baseline, earlier stage of program): 5 per month
- tonic seizures ([1]; other patient, week 12, 67 seizures at baseline, earlier stage of program): 6 per month
- patients who became seizure free (seizures [2]): two of the four
- prevention of seizures [3]: able to prevent seizures
- solubility in water [4]: insoluble
- controlling seizures (seizures [5]): ineffective

SMILES: CCCCCc1cc(O)c2c(c1)OC(C)(C)[C@@H]1CCC(C)=C[C@@H]21 [THC, Tetrahydro- cannabinol]
- pro-convulsant effect (seizures [6]): pro-convulsant
